In the NIST ThermoML archive (doi:10.1016/j.tca.2015.12.010):
Numbers after ± are expanded uncertainties.

How the values were obtained:
[1] = Molar enthalpy of transition or fusion; conditions: Crystal; DSC
[2] = Crystal

| Compound | Molar enthalpy of transition or fusion [1] | Normal melting temperature ([2]; DTA) | Normal melting temperature ([2]; Infrared thermography) |
| --- | --- | --- | --- |
| OC[C@@H](O)[C@@H](O)[C@H](O)[C@H](O)CO [D-mannitol] | 13.8 ± 0.359 kcal/mol | 167.10 ± 2.1 °C | 166.00 ± 10 °C |
| OC[C@@H](O)[C@@H](O)[C@@H](O)CO [SRS-1,2,3,4,5-pentanepentol] | 8.44 ± 0.217 kcal/mol | 100.00 ± 1.1 °C | 101.60 ± 10 °C |
| OC[C@@H](O)[C@H](O)[C@H](O)[C@@H](O)CO [dulcitol] | 15.5 ± 0.382 kcal/mol | 187.30 ± 0.5 °C | 189.50 ± 10 °C |
| OC[C@@H](O)[C@@H](O)CO [meso-1,2,3,4-butanetetrol] | 9.92 ± 0.263 kcal/mol | 118.90 ± 1.1 °C | 121.20 ± 10 °C |
| OC[C@@H](O)[C@H](O)[C@@H](O)CO [xylitol] | 9.13 ± 0.263 kcal/mol | 95.10 ± 1.1 °C | 99.00 ± 10 °C |
